Read-outs that look alike come from different tables or passages of the source.
Target: T1, SARM1 (Homo sapiens, UniProt Q6SZW1)
T1 construct: AviTag […]; made in house; host or cells: NRK1-HEK293T cells, transiently transfected; the clarified sonicated lysate was used without purification
T1 sequence (Q6SZW1 with tags, fused parts or gaps): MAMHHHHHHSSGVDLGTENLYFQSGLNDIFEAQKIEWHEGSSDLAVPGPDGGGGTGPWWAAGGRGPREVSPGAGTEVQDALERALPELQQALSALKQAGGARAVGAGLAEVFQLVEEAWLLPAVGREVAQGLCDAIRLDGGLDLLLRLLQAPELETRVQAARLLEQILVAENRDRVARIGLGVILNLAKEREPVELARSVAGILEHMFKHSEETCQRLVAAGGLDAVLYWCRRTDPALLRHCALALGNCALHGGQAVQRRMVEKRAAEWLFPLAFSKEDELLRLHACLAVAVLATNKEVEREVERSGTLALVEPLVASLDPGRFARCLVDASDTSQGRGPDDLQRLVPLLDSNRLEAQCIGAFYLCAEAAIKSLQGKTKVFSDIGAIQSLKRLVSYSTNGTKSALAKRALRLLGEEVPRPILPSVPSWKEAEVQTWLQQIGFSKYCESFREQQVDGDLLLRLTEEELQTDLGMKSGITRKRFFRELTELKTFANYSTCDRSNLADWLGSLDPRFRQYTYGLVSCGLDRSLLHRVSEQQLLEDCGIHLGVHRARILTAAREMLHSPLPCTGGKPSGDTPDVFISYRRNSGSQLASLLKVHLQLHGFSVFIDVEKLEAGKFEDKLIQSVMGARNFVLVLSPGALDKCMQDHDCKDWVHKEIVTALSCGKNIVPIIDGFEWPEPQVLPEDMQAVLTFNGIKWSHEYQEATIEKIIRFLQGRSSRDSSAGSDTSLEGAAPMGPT
Assay: ARM-SAM-TIR SARM1 IC50 assay (NADase activity, NAD+ cleavage)
Assay type: biochemical
Excerpt: This Example describes an assay of ARM-SAM-TTR NADase activity and use of this assay to measure the efficacy of compounds of Formula I or Formula II to block SARM1 mediated NAD+ cleavage. This assay is optimized in such a way as to characterize the efficacy of the compounds in Formula I or Formula II to inhibit SARM1 activity and to calculate an IC50 value for each compound. This assay makes use of full length SARI, which encompasses the ARM, SAM and TTR domains.
Preparation of ARM-SAM-TIR Lysate (STL)
NRK1-HEK293T cells were seeded onto 150 cm^2 plates at 20×10^6 cells per plate. The next day, the cells were transfected with 15 μg ARM-SAM-TIR expression plasmid, SEQ ID NO: 1.
The cultures were supplemented with 1 mM NR at time of transfection to minimize toxicity from ARM-SAM-TIR overexpression. Forty-eight hours after transfection, cells were harvested, pelleted by centrifugation at 1,000 rpm (Sorvall ST 16R centrifuge, Thermo Fisher), and washed once with cold PBS (0.01 M phosphate buffered saline NaCl 0.138 M; KCl 0.0027 M; pH 7.4). The cells were resuspended in PBS with protease inhibitors (cOmplete™ protease inhibitor cocktail, Roche product #11873580001) and cell lysates were prepared by sonication (Branson Sonifer 450, output=3, 20 episodes of stroke). The lysates were centrifuged (12,000×g for 10 min at 4° C.) to remove cell debris and the supernatants (containing ARM-SAM-TIR protein) were stored at −80° C. for later use in the in vitro ARM-SAM-TIR NADase assay (see below). Protein concentration was determined by the Bicinchoninic (BCA) method and used to normalize lysate concentrations.
ARM-SAM-TIR IC50 Assay of Formula I or Formula II Compounds.
The enzymatic assay was performed in a 384-well polypropylene plate in Dulbecco's PBS buffer in a final assay volume of 20 μL. ARM-SAM-TIR lysate with a final concentration of 5 μg/mL was pre-incubated with the respective compound at 1% DMSO final assay concentration over 2 h at room temperature. The reaction was initiated by addition of 5 μM final assay concentration of NAD+ as substrate. After a 2 hr room temperature incubation, the reaction was terminated with 40 μL of stop solution of 7.5% trichloroactetic acid in acetonitrile. The NAD+ and ADPR concentrations were analyzed by a RapidFire High Throughput Mass Spectrometry System (Agilent Technologies, Santa Clara, CA) using an API4000 triple quadrupole mass spectrometer (AB Sciex Framingham, MA).

[1] = ARM-SAM-TIR lysate 5 μg/mL from NRK1-HEK293T cells, 2 h pre-incubation with compound, 5 μM NAD+, 2 hr room temperature, NAD+ and ADPR by RapidFire mass spectrometry, read-out: SARM1 IC50

| SMILES | IC50 [1] [µM] | IC50 [µM] |
| --- | --- | --- |
| N#Cc1cc(N2CCOCC2)nc2ccc(Cl)cc12 [Example 76] | < 5 |  |
| C[C@@H]1CCC[C@H](C)N1c1cc(C#N)c2cc(Cl)ccc2n1 [Example 81] | < 5 |  |
| C[C@@H]1CCCCN1c1cc(C#N)c2cc(Cl)ccc2n1 [Example 82] | < 5 |  |
| C[C@H]1CCCCN1c1cc(C#N)c2cc(Cl)ccc2n1 [Example 83] | < 5 |  |
| N#Cc1cc(N2C[C@H]3C[C@@H]2CN3)nc2ccc(Cl)cc12 [Example 84] |  | 5 to 15 |
| Cn1cc(-c2cc(C#N)c3cc(Cl)ccc3n2)cn1 [Example 86] | 5 to 15 |  |
| N#Cc1cc(-c2cccnc2)nc2ccc(Cl)cc12 [Example 87] | 15 to 30 |  |
| C#CCCC1(CCNC2CCN(c3cc(C#N)c4cc(Cl)ccc4n3)CC2)N=N1 [Example 88] | < 5 |  |
| N#Cc1cc(N2CCCCC2)nc2cc(F)c(Cl)cc12 [Example 89] | < 5 |  |
| N#Cc1c(Cl)c(N2CC[C@@H](O)C2)nc2ccc(Cl)cc12 [Example 90] | < 5 |  |
| CC(C)(C)OC(=O)N1C2CC1CN(c1cc(C#N)c3cc(Cl)ccc3n1)C2 [Example 91] |  | < 5 |
| N#Cc1cc(N2CCSCC2)nc2ccc(Cl)cc12 [Example 92] | < 5 |  |
| CC(C)(C)OC(=O)NC1CCN(c2cc(C#N)c3cc(C4=CCOC4)ccc3n2)CC1 [Example 93] | < 5 |  |
| CC(C)(C)OC(=O)NC1CCN(c2cc(C#N)c3cc(C4CCOC4)ccc3n2)CC1 (stereo not drawn) [Example 94] | < 5 |  |
| N#Cc1cc(N2CCCC[C@H]2CO)nc2ccc(Cl)cc12 [Example 95] | < 5 |  |
| C[C@@H]1CCC[C@H](C)N1c1cc(C#N)c2cc(Br)ccc2n1 [Example 96] | < 5 |  |
| N#Cc1cc(N2CCCCC2C2CC2)nc2ccc(Cl)cc12 (stereo not drawn) [Example 98] | < 5 |  |
| N#Cc1cc(N2CCC[C@H](NCc3ccccc3)C2)nc2ccc(Br)cc12 [Example 107] | < 5 |  |
| C#CCCC1(CCNc2cc(C#N)c3cc(Cl)ccc3n2)N=N1 [Example 111] | < 5 |  |
| N#Cc1cc(N2CCC(NCc3ccccc3)CC2)nc2ccc(Br)cc12 [Example 113] | < 5 |  |
| CC(=O)NC1(C)CCN(c2cc(C#N)c3cc(Br)ccc3n2)CC1 [Example 114] | < 5 |  |
| CC1(NS(C)(=O)=O)CCN(c2cc(C#N)c3cc(Br)ccc3n2)CC1 [Example 118] | < 5 |  |
| C[C@]1(NS(C)(=O)=O)CCCN(c2cc(C#N)c3cc(Br)ccc3n2)C1 [Example 120] | < 5 |  |
| C[C@@]1(NS(C)(=O)=O)CCCN(c2cc(C#N)c3cc(Br)ccc3n2)C1 [Example 122] | < 5 |  |
| N#Cc1cc(N2CCOCC2C2CC2)nc2ccc(Cl)cc12 (stereo not drawn) [Example 131] | < 5 |  |
| N#Cc1cc(N2CCC(NS(N)(=O)=O)CC2)nc2ccc(Br)cc12 [Example 132] | < 5 |  |

Now from value to compound, other results behind:

| IC50 [1] [µM] | SMILES | IC50 [µM] |
| --- | --- | --- |
| < 5 | N#Cc1cc(N2CCC[C@H](O)C2)nc2ccc(Cl)cc12 [Example 77] |  |
| < 5 | N#Cc1cc(N2CCC[C@H](C(N)=O)C2)nc2ccc(Cl)cc12 [Example 78] |  |
| < 5 | CNC(=O)[C@H]1CCCN(c2cc(C#N)c3cc(Cl)ccc3n2)C1 [Example 79] |  |
| < 5 | CN(C)C(=O)[C@H]1CCCN(c2cc(C#N)c3cc(Cl)ccc3n2)C1 [Example 80] |  |
| 5 to 15 | N#Cc1cc(N2CCC[C@@H](N)C2)nc2ccc(Cl)cc12 [Example 85] |  |
| < 5 | CC1(O)CCCN(c2cc(C#N)c3cc(Br)ccc3n2)C1 (stereo not drawn) [Example 97] |  |
| < 5 | N#Cc1cc(N2CC[C@H](N)C(F)C2)nc2ccc(Br)cc12 (stereo partly drawn) [Example 99] |  |
| < 5 | N#Cc1cc(N2CCC[C@H](C(=O)N3CCCC3)C2)nc2ccc(Br)cc12 [Example 100] |  |
| < 5 | N#Cc1cc(N2CCC[C@H](C(=O)N3CCOCC3)C2)nc2ccc(Br)cc12 [Example 101] |  |
| < 5 | COCCNC(=O)[C@H]1CCCN(c2cc(C#N)c3cc(Br)ccc3n2)C1 [Example 102] |  |
| < 5 | N#Cc1cc(N2CCC[C@H](C(=O)NCC3CC3)C2)nc2ccc(Br)cc12 [Example 103] |  |
| < 5 | N#Cc1cc(N2CCC(C(=O)N3CCOCC3)CC2)nc2ccc(Br)cc12 [Example 104] |  |
| 5 to 15 | N#Cc1cc(N2CCC(C(=O)NCC3CC3)CC2)nc2ccc(Br)cc12 [Example 105] |  |
| < 5 | N#Cc1cc(N2CCC[C@H](NC(=O)C3CC3)C2)nc2ccc(Br)cc12 [Example 106] |  |
| < 5 | N#Cc1cc(N2CCC[C@H](NCC3CC3)C2)nc2ccc(Br)cc12 [Example 108] |  |
| < 5 | N#Cc1cc(N2CCC[C@H](N3CCCC3=O)C2)nc2ccc(Br)cc12 [Example 109] |  |
| < 5 | CS(=O)(=O)N[C@H]1CCCN(c2cc(C#N)c3cc(Br)ccc3n2)C1 [Example 110] |  |
| < 5 | COCCN(C)C(=O)[C@H]1CCCN(c2cc(C#N)c3cc(Br)ccc3n2)C1 [Example 112] |  |
| < 5 | CN(CC1CC1)C(=O)[C@H]1CCCN(c2cc(C#N)c3cc(Br)ccc3n2)C1 [Example 115] |  |

| IC50 [1] [µM] | SMILES | IC50 [µM] |
| --- | --- | --- |
| < 5 | CN(Cc1ccccc1)C(=O)[C@H]1CCCN(c2cc(C#N)c3cc(Br)ccc3n2)C1 [Example 116] |  |
| < 5 | CS(=O)(=O)NC1CCN(c2cc(C#N)c3cc(Br)ccc3n2)CC1 [Example 117] |  |
| < 5 | CC(=O)N[C@@]1(C)CCCN(c2cc(C#N)c3cc(Br)ccc3n2)C1 [Example 119] |  |
| < 5 | CC(=O)N[C@]1(C)CCCN(c2cc(C#N)c3cc(Br)ccc3n2)C1 [Example 121] |  |
| < 5 | COCCN(C)C(=O)C1CCN(c2cc(C#N)c3cc(Br)ccc3n2)CC1 [Example 123] |  |
| < 5 | CN(CC1CC1)C(=O)C1CCN(c2cc(C#N)c3cc(Br)ccc3n2)CC1 [Example 124] |  |
| < 5 | CN(Cc1ccccc1)C(=O)C1CCN(c2cc(C#N)c3cc(Br)ccc3n2)CC1 [Example 125] |  |
| < 5 | N#Cc1cc(N2CCC[C@H](NC(=O)c3ccncn3)C2)nc2ccc(Br)cc12 [Example 126] |  |
| < 5 | N#Cc1cc(N2CCC[C@H](NC(=O)c3cn[nH]c3)C2)nc2ccc(Br)cc12 [Example 127] |  |
| < 5 | Cn1cc(C(=O)N[C@H]2CCCN(c3cc(C#N)c4cc(Br)ccc4n3)C2)cn1 [Example 128] |  |
| < 5 | Cc1n[nH]cc1C(=O)N[C@H]1CCCN(c2cc(C#N)c3cc(Br)ccc3n2)C1 [Example 129] |  |
| < 5 | Cn1cnc(C(=O)N[C@H]2CCCN(c3cc(C#N)c4cc(Br)ccc4n3)C2)c1 [Example 130] |  |
| < 5 | N#Cc1cc(N2CCC[C@H](NC(=O)c3cnccn3)C2)nc2ccc(Br)cc12 [Example 133] |  |
| < 5 | Cc1nccnc1C(=O)N[C@H]1CCCN(c2cc(C#N)c3cc(Br)ccc3n2)C1 [Example 134] |  |
| < 5 | Cc1cncnc1C(=O)N[C@H]1CCCN(c2cc(C#N)c3cc(Br)ccc3n2)C1 [Example 135] |  |
| < 5 | N#Cc1cc(N2CCC[C@H](NC(=O)c3c[nH]cn3)C2)nc2ccc(Br)cc12 [Example 136] |  |
| < 5 | N#Cc1cc(N2CCC[C@H](NC(=O)N3CCOCC3)C2)nc2ccc(Br)cc12 [Example 137] |  |
| < 5 | N#Cc1cc(N2CCC[C@H](NC(=O)N3CCS(=O)(=O)CC3)C2)nc2ccc(Br)cc12 [Example 138] |  |

Reference: patent US12441719B2, “Inhibitors of SARM1” (Disarm Therapeutics, Inc., priority 2019, dated 2025)
